Several values for one entry are separate records, joined by “and”; a condition that tells them apart may be missing. Identical values can stand only once. Entries after “also recorded” stand apart in the source; their conditions may differ.
Legend:
[1] = tested on: mitochondria of 3T3L1 preadipocytes; test: Mitochondrial staining with MitoTracker green, confocal microscopy; type: cell-based; conditions: 60 μM, 24 hours
Description: The 3T3L1 preadipocytes were plated onto Ibidi u-slide 8 well plates at 1.6×10^4 cells/well and incubated at 37° C. in a humidified atmosphere with 10% CO2. The media was removed after 24 hours, the cells were treated with 60 μM GR24 and incubated for 24 hours at 37° C. in a humidified atmosphere with 10% CO2. After 24 hours of treatment, staining of mitochondria was done using 200 nM MitoTracker Mitochondrion-Selective Probes (Green FM probes Cat.#M7514, Invitrogen) according to the manufacturer's instructions. The cells were observed using a confocal microscope and images were taken at 40× oil immersion.
Preadipocytes were treated with DMSO (Vehicle control) (FIG. 5A), 60 μM resveratrol (FIG. 5B) or 60 μM strigolactone analog GR24 (FIG. 5C) for 24 hours. Next, preadipocytes were stained with MitoTracker green and observed under a confocal microscope at 40× oil immersion. […] The white oval shaped structures are nucleus and the white thread-like structures around the nucleus in the cytoplasm are mitochondria. When compared to the control, there was an increase in mitochondrial biogenesis represented by elongated mitochondria, and an increase in mitochondrial activation represented by the intensity of fluorescence, in cells treated with resveratrol and GR24. […] Thus, GR24 enhances both biogenesis and activity of mitochondria, which is necessary to generate ATP.

[2] = tested on: SIRT1; test: SIRT1 protein expression, immunoblot and densitometry in 3T3 L1 preadipocytes; type: cell-based; conditions: 24 hours; for SIRT1 protein expression compared to control: 3T3 L1 cells, 60 μM each compound; for SIRT1 protein expression vs control: 3T3L1 preadipocytes, 100 μM
Description: 3T3L1 cells were purchased from American Type Culture Collection (Manassas, Va., USA) and cultured in DMEM media containing 4.5 g/l glucose supplemented with 10% fetal bovine serum (Hyclone), 2 mM L-glutamine (Gibco), 100 U/ml penicillin, and 100 μg/ml streptomycin (Gibco). The cells were cultured at 37° C. in a humidified atmosphere with 10% CO2.
The 3T3L1 cells were plated at 6×10^4 cells/well in 12 well plates and incubated at 37° C. in a humidified atmosphere with 10% CO2. The media was removed after 24 hours and the cells were treated with 60 μM GR24 individually and in combination with […] and 60 μM pinosylvin, and incubated for 24 hours at 37° C. in a humidified atmosphere with 10% CO2. The media was removed, cells were washed with PBS, and cell lysates were collected on ice. Proteins were extracted using RIPA buffer along with protease and phosphatase inhibitors. Lysates were centrifuged for 30 min at high speed; supernatant was collected and stored at […] until further analysis. The vehicle controls were 3T3 L1 cells without any treatment with drugs or other compounds. The drugs or compounds that were used in all the experiments were dissolved or diluted in dimethylsulfoxide (DMSO) as diluent. In all experiments, the controls were treated with the same volume of DMSO as was used to dissolve drugs or compounds in compound-treated cells to show and ensure that the actual change in protein expression in different treatments was due solely to the compounds or combination of compounds and not to the DMSO.
Protein concentrations were measured using a BCA (bicinchoninic acid) protein assay kit (Cat.#23225; Pierce, Rockford, Ill.). Twenty (20) μg/lane of total cellular protein samples containing NuPAGE LDS sample buffer (Invitrogen) and reducing agent were loaded into 4-12% NuPAGE Bis-Tris gels (Invitrogen), subjected to gel electrophoresis, and transferred to polyvinylidene fluoride membranes (Amersham). For SIRT1 proteins, membranes were blocked in 0.05% TBS-Tween with 3% milk for 1 hour, incubated overnight at +4° C. with SIRT1 primary antibodies (Cat.#07-131, Millipore). For phospho-AMPKα and AMPKα proteins, blocking was done for 1 hour in 0.1% TBS-Tween with 5% milk. The membranes were incubated overnight at +4° C. with phospho-AMPKα (Cat. #2535, Cell Signaling) and AMPKα (Cat.#2532, Cell Signaling) primary antibodies. Horseradish peroxidase-conjugated anti-rabbit antibodies (Cat. #NA934V GE Health Care, Amersham, U.K) were used as secondary antibodies. For α-tubulin (loading control), membranes were blocked in 0.05% PBS-Tween with 3% milk for 1 hour, incubated with α-tubulin (Cat.# B-5-1-2, Sigma) primary antibodies for 1 hour at room temperature and horseradish peroxidase-conjugated anti-mouse (Cat. # NA 931V GE Health Care, Amersham, U.K.) IgG antibodies were used as secondary antibodies.
The membranes were developed using chemiluminescence (ECL plus, GE Health Care), and images were captured in an Image Quant RT-ECL machine (version 1.0.1; GE Health Care). Densitometry and quantification of the bands were done by applying Quantity One software (Bio-Rad). The expression levels of the proteins were normalized to α-tubulin protein levels.
3T3L1 cells were purchased from American Type Culture Collection (Manassas, Va., USA) and cultured in DMEM media containing 4.5 g/l glucose supplemented with 10% fetal bovine serum (Hyclone), 2 mM L-glutamine (Gibco) and 100 U/ml penicillin, 100 μg/ml streptomycin (Gibco). The cells were cultured at 37° C. in a humidified atmosphere with 10% CO2. 3T3L1 preadipocytes were plated at 1×10^5 cells/well in 6 well plates and incubated at 37° C. in a humidified atmosphere with 10% CO2. […] In all experiments, the controls were treated with the same volume of DMSO as was used to dissolve compounds in compound-treated cells to show and ensure that the actual change in protein expression in different treatments was only due to the compounds DMSO. […]

[3] = tested on: acetyl-CoA carboxylase (ACC); test: ACC expression, immunoblot in 3T3L1 preadipocytes; type: cell-based; conditions: 100 μM, 24 hours
[4] = tested on: PGC-1α; test: PGC-1α protein expression, immunoblot and densitometry in 3T3 L1 preadipocytes; type: cell-based; conditions: 3T3L1 preadipocytes, 100 μM, 24 hours
[5] = tested on: fungal cell; conditions: cited from earlier work

For `CC1=CC(O/C=C2/C(=O)O[C@@H]3c4ccccc4C[C@H]23)OC1=O` (stereo partly drawn) [GR24], the “increase in intensity of staining, visibility” value [1] was “clearly visible only in the GR24 treated cells”, the “mitochondrial activation (intensity of fluorescence) compared to control” value [1] was “increase” and the “mitochondrial biogenesis (elongated mitochondria) compared to control” value [1] was “increase”. The “SIRT1 protein expression compared to control” value [2] was “significant increase; also recorded: significantly (*P<0.05) increased”, the “SIRT1 protein expression compared to control” value ([2]; listed as GR 24) was “significant increase; also recorded: significantly (*P<0.05) increased” and the “SIRT1 expression compared with resveratrol” value ([2]; 3T3 L1 preadipocytes, 60 μM) was “greater than did resveratrol”. For the same compound, the “SIRT1 protein expression compared to control (100%)” value ([2]; 3T3 L1 preadipocytes, 60 μM, control = 100%) was 168% and 164% and 198% and 220% and 149%, the “SIRT1 protein expression vs control” value [2] was “significantly increased” and the “SIRT1 protein expression vs control” value ([2]; listed as GR 24) was “increase”. The “ACC protein expression vs control” value [3] was “down-regulated”, the “PGC-1α expression vs control” value [4] was “significantly increased” and the “PGC-1α expression vs control” value ([4]; listed as GR 24) was “activation”. For the same compound, the “ATP content of the fungal cell” value [5] was “rapid increase”, the NADH concentration [5] was “rapid increase” and the NADH dehydrogenase activity [5] was “rapid increase”.

Source: US20140142170A1, “COMPOSITION AND METHOD FOR INFLUENCING ENERGY METABOLISM AND TREATING METABOLIC AND OTHER DISORDERS” (SIRTUIN VALLEY OY, priority 2010, published 2014)
